Literature values as cited in patent US10894017B1 (XSPRAY PHARMA AB, priority 2019, dated 2021).

Experiments:
[1] = clinical bio-equivalence studies
[2] = high permeability and low solubility
[3] = within and between patients

## CC(O)CO.Cc1nc(Nc2ncc(C(=O)Nc3c(C)cccc3Cl)s2)cc(N2CCN(CCO)CC2)n1 [1,2-propanediol solvate, dasatinib 1,2-propanediol solvate]
[1]
  AUC compared to Sprycel: higher AUC

## Cc1nc(Nc2ncc(C(=O)Nc3c(C)cccc3Cl)s2)cc(N2CCN(CCO)CC2)n1 [Dasatinib monohydrate]
[2]
  BCS classification: BCS II

## Cc1nc(Nc2ncc(C(=O)Nc3c(C)cccc3Cl)s2)cc(N2CCN(CCO)CC2)n1 [anhydrate form N-6]
[1]
  AUC compared to Sprycel: higher AUC

## Cc1nc(Nc2ncc(C(=O)Nc3c(C)cccc3Cl)s2)cc(N2CCN(CCO)CC2)n1 [dasatinib]
[3]
  coefficient of variation of AUC: up to 100%
  coefficient of variation of Cmax: up to 100%
